Measurements as given in paper PMC3972818 (Nature medicine, 2014).

What was measured:
in vitro = in vitro ADME; settings: rat, microsomes
[1] = rat IV; mean (% CV); cited from earlier work
[2] = mean (% CV); cited from earlier work
[3] = test system: COX1 synthesis in mitochondria isolated from HEK293 cells; assay: Mitochondrial in organello translation; type: biochemical, human; settings: even up to 1 mM

## CN[C@@H]1[C@H](O)[C@H](NC)[C@H]2O[C@@]3(O)C(=O)C[C@@H](C)O[C@H]3O[C@@H]2[C@H]1O [Spectinomycin, spectinomycin]
In vitro
  remaining at 1.5 h: 80.4%
[1]
  % excreted unchanged in urine: 55.3 (27.0)^2%
  CL: 0.60 (11.5)^2 L/h/kg
  Vd: 0.76 (45.2)^2 L/kg
  t½: 0.75 (49.3)^2 h
[2]
  Protein serum binding (Rat) % bound: 12.7 (7.5)^2%
[3]
  Inhibition of in organello mitochondrial translation: did not inhibit
